Source: patent publication US11136312B2, “3,4,5-trisubstituted-1,2,4-triazoles and 3,4,5-trisubstituted-3-thio-1,2,4-triazoles and uses thereof” (Board of Trustees of Southern Illinois University, priority 2017, dated 2021)

What was measured:
Experiment in all cases: Competitive radioligand binding, 125I-Tyr-SRIF 14, membrane preparations
[1] = biological target: human somatostatin receptor SSTR2A (Homo sapiens (Human), UniProt P30874); settings: competitive binding vs 125I-Tyr-SRIF 14, human SSTR2A membranes; read-out: SST2
Description: (§1) Respective membrane receptor preparations were prepared in assay buffer (25 mM HEPES, 10 mM MgCl2, 1 mM CaCl2, 0.5% BSA, pH=7.4) at a 1:150 dilution. […] Binding assays were performed in triplicate for each concentration of ligand in a total volume of 200 μL radioligand (25 μL ligand, 25 μL radioligand, 150 μL receptors) and incubated at room temperature for 90 minutes using a shaking table. Binding was terminated by filtration through GF/B glass fiber filters that were presoaked in 0.5% polyethyleneimine for a minimum of 4 hours. Filters were washed 9× with 1000 μL ice cold wash buffer (50 mM Tris-HCl, pH=7.4, 0.2% BSA). Filters were scored, transferred into plastic test tubes and counted in a gamma counter (Wizard2, Perkin-Elmer). Determination of the Ki for each compound was performed using non-linear regression with GraphPad PRISM-5 software (GraphPad Software, Inc., La Jolla, Calif.).

[2] = biological target: human somatostatin receptor SSTR5 (Homo sapiens (Human), UniProt P35346); settings: competitive binding vs 125I-Tyr-SRIF 14, human SSTR5 membranes; read-out: SST5
Description: as §1

[3] = biological target: human somatostatin receptor SSTR1 (Homo sapiens (Human), UniProt P30872); settings: competitive binding vs 125I-Tyr-SRIF 14, human SSTR1 membranes; read-out: SST1
Description: as §1

[4] = biological target: human somatostatin receptor SSTR3 (Homo sapiens (Human), UniProt P32745); settings: competitive binding vs 125I-Tyr-SRIF 14, human SSTR3 membranes; read-out: SST3
Description: Competitive radioligand binding experiments were performed using MEMBRANE TARGET Systems (Perkin-Elmer, Boston, Mass.) for human somatostatin receptors: SSTR1 (ES-520-M400UA), SSTR2A (ES-521-M400UA), SSTR3 (ES523-M400UA), SSTR4 (ES-524-M400UA) and SSTR5 (ES-522-M400UA) receptors. (See Table 1). Respective membrane receptor preparations were prepared in assay buffer (25 mM HEPES, 10 mM MgCl2, 1 mM CaCl2, 0.5% BSA, pH=7.4) at a 1:150 dilution. Binding assays were performed using 1251-Tyr-SRIF 14 (Perkin-Elmer, NEX 3890) dissolved in 1 mM HCl. Binding assays were performed in triplicate for each concentration of ligand in a total volume of 200 μL radioligand (25 μL ligand, 25 μL radioligand, 150 μL receptors) and incubated at room temperature for 90 minutes using a shaking table. Binding was terminated by filtration through GF/B glass fiber filters that were presoaked in 0.5% polyethyleneimine for a minimum of 4 hours. Filters were washed 9× with 1000 μL ice cold wash buffer (50 mM Tris-HCl, pH=7.4, 0.2% BSA). Filters were scored, transferred into plastic test tubes and counted in a gamma counter (Wizard2, Perkin-Elmer). Determination of the Ki for each compound was performed using non-linear regression with GraphPad PRISM-5 software (GraphPad Software, Inc., La Jolla, Calif.).

Chain of human somatostatin receptor SSTR2A (P30874 whole entry): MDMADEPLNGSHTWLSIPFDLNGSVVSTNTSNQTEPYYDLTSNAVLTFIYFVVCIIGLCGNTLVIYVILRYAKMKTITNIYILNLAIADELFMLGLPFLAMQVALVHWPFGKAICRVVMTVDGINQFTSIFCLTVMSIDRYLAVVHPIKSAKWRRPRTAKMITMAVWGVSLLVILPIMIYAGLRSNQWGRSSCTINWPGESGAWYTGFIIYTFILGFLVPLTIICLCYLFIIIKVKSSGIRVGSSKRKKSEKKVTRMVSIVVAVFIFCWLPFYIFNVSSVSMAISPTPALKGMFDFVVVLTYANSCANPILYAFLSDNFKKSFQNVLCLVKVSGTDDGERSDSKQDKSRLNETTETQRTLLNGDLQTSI

Row | Ki [1] [µM] | Ki [2] [µM] | Ki [3] [µM] | Ki [4] [µM] | SMILES
1 | 0.64 | > 10 | 0.0978 | 1.74 | Fc1ccc2c(Cc3nnc(Cc4c[nH]c5cc(F)ccc45)n3CCCc3c[nH]cn3)c[nH]c2c1 [SK-I-124, 3,3′-((4-(3-(1H-imidazol-4-yl)propyl)-4H-1,2,4-triazol-3,5-diyl)bis(methylene))bis(6-fluoro-1H-indole)]
2 | > 10 | > 10 | 4.74 | > 10 | Brc1cccc(Cc2nnc(CCc3c[nH]c4ccccc34)n2CCCc2c[nH]cn2)c1 [SM-I-50, 3-(2-(4-(3-(1H-Imidazol-4-yl)propyl)-5-(3-bromobenzyl)-4H-1,2,4-triazol-3-yl)ethyl)-1H-indole]
3 | > 10 | – | – | – | O=[N+]([O-])c1cccc(Cc2nnc(CCc3c[nH]c4ccccc34)n2CCCc2c[nH]cn2)c1 [MM-I-43, 3-(2-(4-(3-(1H-Imidazol-4-yl)propyl)-5-(3-nitrobenzyl)-4H-1,2,4-triazol-3-yl)ethyl)-1H-indole]
4 | > 10 | > 10 | > 10 | > 10 | COc1cccc(Cc2nnc(CCc3c[nH]c4ccccc34)n2CCCc2c[nH]cn2)c1 [BN-VI-61, 3-(2-(4-(3-(1H-Imidazol-4-yl)propyl)-5-(3-methoxybenzyl)-4H-1,2,4-triazol-3-yl)ethyl)-1H-indole]
5 | 6.98 | – | – | – | Clc1cc(Cl)cc(Cc2nnc(CCc3c[nH]c4ccccc34)n2CCCc2c[nH]cn2)c1 [BN-VI-89, 3-(2-(4-(3-(1H-Imidazol-4-yl)propyl)-5-(3,5-dichlorobenzyl)-4H-1,2,4-triazol-3-yl)ethyl)-1H-indole]
6 | > 10 | – | – | – | c1ccc(COc2cccc(Cc3nnc(CCc4c[nH]c5ccccc45)n3CCCc3c[nH]cn3)c2)cc1 [MM-I-53, 3-(2-(4-(3-(1H-imidazol-4-yl)propyl)-5-(3-(benzyloxy)benzyl)-4H-1,2,4-triazol-3-yl)-ethyl)-1H-indole]
7 | 2.08 | – | – | – | Fc1ccc2c(Cc3nnc(Cc4cccc(Br)c4)n3CCCc3c[nH]cn3)c[nH]c2c1 [MM-I-83, 3-((4-(3-(1H-imidazol-4-yl)propyl)-5-(3-bromobenzyl)-4H-1,2,4-triazol-3-yl)methyl)-6-fluoro-1H-indole]
8 | 1.69 | > 10 | 0.365 | 1.13 | COc1ccc2[nH]cc(Cc3nnc(Cc4cccc(C(F)(F)F)c4)n3CCCc3c[nH]cn3)c2c1 [SK-I-57, 3-((4-(3-(1H-imidazol-4-yl)propyl)-5-(3-(trifluoromethyl)benzyl)-4H-1,2,4-triazol-3-yl)methyl)-5-methoxy-1H-indole]
9 | > 10 | – | – | – | COc1ccc(Cc2nnc(CCc3c[nH]c4ccccc34)n2CCCc2c[nH]cn2)cc1 [SM-I-29, 3-(2-(4-(3-(1H-Imidazol-4-yl)propyl)-5-(4-methoxybenzyl)-4H-1,2,4-triazol-3-yl)ethyl)-1H-indole]
10 | 7.69 | – | – | – | Clc1ccc(Cc2nnc(Cc3c[nH]c4ccccc34)n2CCCc2c[nH]cn2)cc1 [SK-I-22, 3-((4-(3-(1H-imidazol-4-yl)propyl)-5-(4-chlorobenzyl)-4H-1,2,4-triazol-3-yl)methyl)-1H-indole]
11 | 5.3 | > 10 | 1.08 | > 10 | COc1ccc(Cc2nnc(Cc3c[nH]c4cc(F)ccc34)n2CCCc2c[nH]cn2)cc1 [SK-I-105, 3-((4-(3-(1H-imidazol-4-yl)propyl)-5-(4-methoxybenzyl)-4H-1,2,4-triazol-3-yl)methyl)-6-fluoro-1H-indole]
12 | > 10 | – | – | – | c1ccc(-c2ccc(Cc3nnc(CCc4c[nH]c5ccccc45)n3CCCc3c[nH]cn3)cc2)cc1 [MM-I-26, 3-(2-(4-(3-(1H-Imidazol-4-yl)propyl)-5-([1,1′-biphenyl]-4-ylmethyl)-4H-1,2,4-triazol-3-yl)ethyl)-1H-indole]
13 | > 10 | – | – | – | N[C@H](Cc1c[nH]c2ccccc12)c1nnc(Cc2cccc(Cl)c2)n1CCCc1c[nH]cn1 [BN-VI-87, (R)-1-(4-(3-(1H-Imidazol-4-yl)propyl)-5-(3-chlorobenzyl)-4H-1,2,4-triazol-3-yl)-2-(1H-indol-3-yl)ethanamine]
14 | > 10 | > 10 | > 10 | > 10 | c1ccc(Cc2nnc(CCc3c[nH]c4ccccc34)n2CCCc2c[nH]cn2)cc1 [SM-I-26, 3-(2-(4-(3-(1H-Imidazol-4-yl)propyl)-5-benzyl-4H-1,2,4-triazol-3-yl)ethyl)-1H-indole]
15 | > 10 | – | 4.08 | – | FC(F)(F)Oc1cccc(Cc2nnc(CCc3c[nH]c4ccccc34)n2CCCc2c[nH]cn2)c1 [MM-I-36, 3-(2-(4-(3-(1H-imidazol-4-yl)propyl)-5-(3-(trifluoromethoxy)benzyl)-4H-1,2,4-triazol-3-yl)ethyl)-1H-indole]
16 | > 10 | – | – | – | Cn1cc(CCc2nnc(Cc3cccc(C(F)(F)F)c3)n2CCCc2c[nH]cn2)c2ccccc21 [SM-I-76, 3-(2-(4-(3-(1H-imidazol-4-yl)propyl)-5-(3-(trifluoromethyl)benzyl)-4H-1,2,4-triazol-3-yl)ethyl)-1-methyl-1H-indole]
17 | > 10 | – | – | – | N#Cc1cccc(Cc2nnc(CCc3c[nH]c4ccccc34)n2CCCc2c[nH]cn2)c1 [MM-I-63, 3-((4-(3-(1H-imidazol-4-yl)propyl)-5-(2-(1H-indol-3-yl)ethyl)-4H-1,2,4-triazol-3-yl)methyl)benzonitrile]
18 | – | > 10 | > 10 | – | c1ccc(CSc2nnc(-c3c[nH]c4ccccc34)n2CCCc2c[nH]cn2)cc1 [AH-1-86, 3-(4-(3-(1H-imidazol-4-yl)propyl)-5-(benzylthio)-4H-1,2,4-triazol-3-yl)-1H-indole]
19 | > 10 | – | 0.661 | – | CS(=O)(=O)c1cccc(Cc2nnc(Cc3c[nH]c4ccccc34)n2CCCc2c[nH]cn2)c1 [MM-I-72, 3-((4-(3-(1H-imidazol-4-yl)propyl)-5-(3-(methylsulfonyl)benzyl)-4H-1,2,4-triazol-3-yl)methyl)-1H-indole]
20 | > 10 | – | – | – | CS(=O)(=O)c1cccc(Cc2nnc(CCc3c[nH]c4ccccc34)n2CCCc2c[nH]cn2)c1 [SM-I-92, 3-(2-(4-(3-(1H-imidazol-4-yl)propyl)-5-(3-(methylsulfonyl)benzyl)-4H-1,2,4-triazol-3-yl)ethyl)-1H-indole]
21 | > 10 | – | – | – | Fc1ccc(Cc2nnc(Cc3c[nH]c4ccccc34)n2CCCc2c[nH]cn2)cc1 [SK-I-16, 3-((4-(3-(1H-imidazol-4-yl)propyl)-5-(4-fluorobenzyl)-4H-1,2,4-triazol-3-yl)methyl)-1H-indole]
22 | > 10 | – | – | – | Fc1ccc2c(Cc3nnc(Cc4ccccc4)n3CCCc3c[nH]cn3)c[nH]c2c1 [MM-I-89, 3-((4-(3-(1H-imidazol-4-yl)propyl)-5-benzyl-4H-1,2,4-triazol-3-yl)methyl)-6-fluoro-1H-indole]
23 | 3.28 | – | – | – | Fc1ccc2c(Cc3nnc(Cc4cccc(C(F)(F)F)c4)n3CCCc3c[nH]cn3)c[nH]c2c1 [MM-I-87, 3-((4-(3-(1H-imidazol-4-yl)propyl)-5-(3-(trifluoromethyl)benzyl)-4H-1,2,4-triazol-3-yl)methyl)-6-fluoro-1H-indole]
24 | > 10 | – | – | – | Clc1ccc(Cc2nnc(CCc3c[nH]c4ccccc34)n2CCCc2c[nH]cn2)cc1 [BN-VI-62, 3-(2-(4-(3-(1H-Imidazol-4-yl)propyl)-5-(4-chlorobenzyl)-4H-1,2,4-triazol-3-yl)ethyl)-1H-indole]
